Source: the supplement of paper PMC10307832

Assays:
Experiment in all cases: relative viability (nuclei count vs DMSO), 5 days (fraction); higher = more cells survive
BMX-IN-1 + Bortezomib = compound: C=CC(=O)Nc1cc(-n2c(=O)ccc3cnc4ccc(-c5ccc(NS(C)(=O)=O)cc5)cc4c32)ccc1C [BMX-IN-1] + CC(C)C[C@H](NC(=O)[C@H](Cc1ccccc1)NC(=O)c1cnccn1)B(O)O [Bortezomib] (partner 0.002 µM)
Method in brief: (§1)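 Relative viability was taken as the ratio of nuclei in treated wells to nuclei in vehicle wells. Lung cancer cell lines in 1536-well plates received compounds by pin tool one day after seeding, either one drug alone or a fixed anchor-drug dose plus five library-drug doses (not always all listed) in √10 steps. Nuclei were counted on 4× images after 5 days of treatment, and values are medians of duplicate plates.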

Ibrutinib + Navitoclax = compound: C=CC(=O)N1CCC[C@@H](n2nc(-c3ccc(Oc4ccccc4)cc3)c3c(N)ncnc32)C1 [Ibrutinib] + CC1(C)CCC(c2ccc(Cl)cc2)=C(CN2CCN(c3ccc(C(=O)NS(=O)(=O)c4ccc(N[C@H](CCN5CCOCC5)CSc5ccccc5)c(S(=O)(=O)C(F)(F)F)c4)cc3)CC2)C1 [Navitoclax] (partner 0.5 µM)
Method in brief: as §1

BMX-IN-1 + Alpelisib = compound: C=CC(=O)Nc1cc(-n2c(=O)ccc3cnc4ccc(-c5ccc(NS(C)(=O)=O)cc5)cc4c32)ccc1C [BMX-IN-1] + Cc1nc(NC(=O)N2CCC[C@H]2C(N)=O)sc1-c1ccnc(C(C)(C)C(F)(F)F)c1 [Alpelisib] (partner 2 µM)
Method in brief: as §1

Ibrutinib + Vorinostat = compound: C=CC(=O)N1CCC[C@@H](n2nc(-c3ccc(Oc4ccccc4)cc3)c3c(N)ncnc32)C1 [Ibrutinib] + O=C(CCCCCCC(=O)Nc1ccccc1)NO [Vorinostat] (partner 1 µM)
Method in brief: as §1

| Cell Line | relative viability (BMX-IN-1 + Bortezomib; first compound 0.02 µM) | relative viability (BMX-IN-1 + Bortezomib; first compound 0.2 µM) | relative viability (BMX-IN-1 + Bortezomib; first compound 0.6325 µM) | relative viability (BMX-IN-1 + Bortezomib; first compound 2 µM) | relative viability (Ibrutinib + Navitoclax; first compound 0.005 µM) | relative viability (Ibrutinib + Navitoclax; first compound 0.01581 µM) | relative viability (Ibrutinib + Navitoclax; first compound 0.05 µM) | relative viability (Ibrutinib + Navitoclax; first compound 0.1581 µM) | relative viability (Ibrutinib + Navitoclax; first compound 0.5 µM) | relative viability (BMX-IN-1 + Alpelisib; first compound 0.02 µM) | relative viability (BMX-IN-1 + Alpelisib; first compound 0.2 µM) | relative viability (BMX-IN-1 + Alpelisib; first compound 0.6325 µM) | relative viability (BMX-IN-1 + Alpelisib; first compound 2 µM) | relative viability (Ibrutinib + Vorinostat; first compound 0.005 µM) | relative viability (Ibrutinib + Vorinostat; first compound 0.01581 µM) | relative viability (Ibrutinib + Vorinostat; first compound 0.05 µM) | relative viability (Ibrutinib + Vorinostat; first compound 0.1581 µM) | relative viability (Ibrutinib + Vorinostat; first compound 0.5 µM) |
| --- | --- | --- | --- | --- | --- | --- | --- | --- | --- | --- | --- | --- | --- | --- | --- | --- | --- | --- |
| LXF-289 | 1.09 | 1.16 | 1.11 | 1.05 | 1.02 | 0.895 | 0.956 | 0.97 | 0.917 | 1.12 | 1.14 | 1.11 | 1.07 | 0.943 | 0.798 | 0.695 | 0.796 | 0.749 |
| LOU-NH91 |  | 0.512 | 0.459 | 0.49 | 0.601 | 0.572 | 0.549 | 0.585 | 0.407 |  | 0.686 | 0.768 | 0.709 | 0.818 | 0.782 | 0.749 | 0.88 | 0.684 |
| NCI-H460 | 1.94 |  | 1.29 | 1.03 | 1.27 | 1.01 | 1.09 | 1.2 | 1.13 | 0.827 | 0.752 | 0.566 | 0.568 | 0.855 | 0.667 | 0.695 | 0.794 | 0.781 |
| IA-LM | 0.884 | 0.928 | 0.984 | 0.884 | 0.768 | 0.853 | 0.79 | 0.79 | 0.951 | 0.854 | 0.697 | 1.07 | 0.916 | 1.04 | 0.864 | 0.918 |  | 0.822 |
| NCI-H596 | 0.9 | 1.28 | 1.31 | 0.988 | 0.924 | 0.867 | 0.852 | 0.962 | 0.681 | 0.511 | 0.535 | 0.544 | 0.54 | 0.468 | 0.628 | 0.501 | 0.57 | 0.572 |
| NCI-H322M | 1.33 | 1.25 | 1.2 | 1.36 | 1.21 | 1.18 | 1.26 | 1.25 | 0.724 | 0.882 | 0.825 | 0.757 | 0.772 | 0.74 | 0.915 | 0.79 | 0.571 | 0.802 |
| H3255 | 0.916 | 0.466 | 0.99 | 0.732 | 0.539 | 0.511 | 0.226 | 0.425 | 0.157 | 0.798 | 0.657 | 0.815 | 0.712 | 0.889 | 0.725 |  | 0.764 | 0.163 |
| COR-L23 | 1.27 | 1.54 | 1.09 | 1.05 | 1.14 | 1 | 1.04 | 1.16 | 1.11 | 0.95 | 0.962 | 0.926 | 0.921 | 0.326 | 0.51 | 0.522 | 0.477 | 0.566 |
| NCI-H2126 | 1.13 | 1.17 | 1.19 | 1.19 |  | 0.803 | 0.801 | 0.861 | 0.588 | 0.763 | 0.748 | 0.827 | 0.77 | 0.454 | 0.748 | 0.644 | 0.725 | 0.56 |
